Laboratory results from patent US12708630B2, “Combined therapy of 4′-thio-5-aza-2′-deoxycytidine and Venetoclax” (PINOTBIO, INC., priority 2021, dated 2026).
pIC50: −log10 of the molar value.

Assays:
Test in all cases: drug activity profiling cytotoxicity
Assay type in all cases: cell-based
[1] = test system: UM-UC-3; conditions: Homo sapiens, UMUC3; UM-UC-3 cell line, Bladder; read-out: Aza-T-dCyd IC50
Description: (§1) To obtain a biomarker for Aza-T-dCyd, drug activity profiling analysis was performed to evaluate the cytotoxicity of 200 cell lines.
(§2) The drug responsiveness analysis of Aza-T-dCyd through drug activity profiling and genomic analysis of 200 cell lines confirmed the potent efficacy of Aza-T-dCyd in various solid tumors (Table 2).

[2] = test system: A498; conditions: Homo sapiens; A498 cell line, Kidney; read-out: Aza-T-dCyd IC50
Description: as §1, §2

[3] = test system: Mia PaCa-2; conditions: Homo sapiens; Mia PaCa-2 cell line, Pancreas; read-out: Aza-T-dCyd IC50
Description: as §1, §2

[4] = test system: MS751; conditions: MS751 cell line, Female GU (Cervix); read-out: Aza-T-dCyd IC50
Description: as §1, §2

[5] = test system: LS-174T; conditions: Homo sapiens, LS174T; LS-174T cell line, Colon; read-out: Aza-T-dCyd IC50
Description: as §1, §2

[6] = test system: SK-PN-DW; conditions: SK-PN-DW cell line, Sarcoma; read-out: Aza-T-dCyd IC50
Description: as §1, §2

[7] = test system: T24; conditions: Homo sapiens, T-24; T24 cell line, Bladder; read-out: Aza-T-dCyd IC50
Description: as §1, §2

[8] = test system: NALM-6; conditions: Homo sapiens; NALM-6 cell line, ALL; read-out: Aza-T-dCyd IC50
Description: as §1, §2

[9] = test system: SU-DHL-8; conditions: Homo sapiens; SU-DHL-8 cell line, B-cell lymphoma; read-out: Aza-T-dCyd IC50
Description: as §1, §2

[10] = test system: U-138MG; conditions: Homo sapiens, U138-MG; U-138MG cell line, CNS (Glioma); read-out: Aza-T-dCyd IC50
Description: as §1, §2

[11] = test system: A-704; conditions: Homo sapiens, A704; A-704 cell line, Kidney; read-out: Aza-T-dCyd IC50
Description: as §1, §2

[12] = test system: RS4; 11; conditions: Homo sapiens, 11 cell line, ALL, read-out: Aza-T-dCyd IC50
Description: as §1, §2

[13] = test system: SW962; conditions: Homo sapiens, SW 962; SW962 cell line, Female GU (Vulva); read-out: Aza-T-dCyd IC50
Description: as §1, §2

[14] = test system: NCI-H747; conditions: Homo sapiens; NCI-H747 cell line, Colon; read-out: Aza-T-dCyd IC50
Description: as §1, §2

[15] = test system: FaDu; conditions: Homo sapiens; FaDu cell line, Head and Neck; read-out: Aza-T-dCyd IC50
Description: as §1, §2

[16] = test system: KG-1; conditions: Homo sapiens; KG-1 cell line, AML; read-out: Aza-T-dCyd IC50
Description: as §1, §2

[17] = test system: MDA MB 231; conditions: Homo sapiens; MDA MB 231 cell line, Breast; read-out: Aza-T-dCyd IC50
Description: as §1, §2

[18] = test system: Colo 205; conditions: Homo sapiens; Colo 205 cell line, Colon; read-out: Aza-T-dCyd IC50
Description: as §1, §2

[19] = test system: A-673; conditions: Homo sapiens, A673; A-673 cell line, Sarcoma; read-out: Aza-T-dCyd IC50
Description: as §1, §2

[20] = test system: Hs 852.T; conditions: Hs 852.T cell line, Skin (Melanoma); read-out: Aza-T-dCyd IC50
Description: as §1, §2

[21] = test system: CCRFCEM; conditions: Homo sapiens, CCRF-CEM; CCRFCEM cell line, ALL; read-out: Aza-T-dCyd IC50
Description: as §1, §2

[22] = test system: SK-N-FI; conditions: Homo sapiens; SK-N-FI cell line, CNS (Neuroblastoma); read-out: Aza-T-dCyd IC50
Description: as §1, §2

[23] = test system: MOLT-16; conditions: Homo sapiens; MOLT-16 cell line, ALL; read-out: Aza-T-dCyd IC50
Description: as §1, §2

[24] = test system: MDA MB 453; conditions: Homo sapiens; MDA MB 453 cell line, Breast; read-out: Aza-T-dCyd IC50
Description: as §1, §2

[25] = test system: OVCAR3; conditions: Homo sapiens, OVCAR-3; OVCAR3 cell line, Female GU (Ovary); read-out: Aza-T-dCyd IC50
Description: as §1, §2

[26] = test system: EFM-19; conditions: Homo sapiens; EFM-19 cell line, Breast; read-out: Aza-T-dCyd IC50
Description: as §1, §2

[27] = test system: ACHN; conditions: Homo sapiens; ACHN cell line, Kidney; read-out: Aza-T-dCyd IC50
Description: as §1, §2

[28] = test system: Cal 27; conditions: Homo sapiens; Cal 27 cell line, Head and Neck; read-out: Aza-T-dCyd IC50
Description: as §1, §2

[29] = test system: J-RT3-T3-5; conditions: Homo sapiens; J-RT3-T3-5 cell line, T-cell Lymphoma; read-out: Aza-T-dCyd IC50
Description: as §1, §2

[30] = test system: VA-ES-BJ; conditions: VA-ES-BJ cell line, Sarcoma; read-out: Aza-T-dCyd IC50
Description: as §1, §2

Nc1ncn([C@H]2CC(O)[C@@H](CO)S2)c(=O)n1 (stereo partly drawn) [Aza-T-dCyd, 4′-thio-5-aza-2′-deoxycytidine]
pIC50 [1]: 6.54 | pIC50 [2]: 7.13 | pIC50 [3]: 6.06 | pIC50 [4]: < 5.00 | pIC50 [5]: < 5.00 | pIC50 [6]: 6.07 | pIC50 [7]: 5.82 | pIC50 [8]: 7.47 | pIC50 [9]: 7.15 | pIC50 [10]: < 5.00 | pIC50 [11]: < 5.00 | pIC50 [12]: 7.69 | pIC50 [13]: < 5.00 | pIC50 [14]: 6.50 | pIC50 [15]: 6.68 | pIC50 [16]: 6.34 | pIC50 [17]: 6.68 | pIC50 [18]: 7.09 | pIC50 [19]: 6.16 | pIC50 [20]: < 5.00 | pIC50 [21]: 6.92 | pIC50 [22]: 5.57 | pIC50 [23]: 7.74 | pIC50 [24]: 5.72 | pIC50 [25]: 5.46 | pIC50 [26]: 5.40 | pIC50 [27]: 6.64 | pIC50 [28]: 6.50 | pIC50 [29]: 6.97 | pIC50 [30]: 6.62
